Measurements taken from US20030157197A1, “PLANT-DERIVED ANTI-PARASITIC AND ANTIFUNGAL COMPOUNDS AND METHODS OF EXTRACTING THE COMPOUNDS” (priority 1998, published 2003).
Values after ≈ are worked out from the molar mass of the structure shown. Where two headings read alike, the source gives them in different places. Each block holds one compound with its values, some of them ahead of it.

Experiments:
RK13 cells = system: RK13 cells; set-up: dose or concentration left out as unconfirmed; conditions: cited from earlier work
Enterocytozoon cuniculi = system: Enterocytozoon cuniculi; set-up: dose or concentration left out as unconfirmed; conditions: cited from earlier work
[1] = system: Plasmodium falciparum Sierra Leone (D-6) clone; assay: in vitro antimalarial assay, [3H]hypoxanthine uptake, D-6 clone; format: cell-based; conditions: chloroquine-susceptible
Procedure: (§1) The in vitro antimalarial assays were performed by using a modification of the semi-automated microdilution technique described earlier (Desjardins et al., 1979, Milhous et al., 1985). Two Plasmodium falciparum malaria parasite clones, designated Indochina (W-2) and Sierra Leone (D-6), were utilized in susceptibility testing. The W-2 clone is resistant to chloroquine, pyrimethamine, sulfadoxine, and quinine, and the D-6 clone is resistant to mefloquine.
(§2) The test extracts/compound, was dissolved in DMSO and serially diluted using malarial growth medium. Drug-induced reduction in uptake of titriated hypoxanthine was used as an index of inhibition of parasite growth.

Cladosporium cucumerinum = assay: TLC bioautographic antifungal test; format: cell-based; conditions: TLC plate sprayed with spore suspension
Procedure: A method similar to that of Homans and Fuchs (1970) was employed. This technique involves direct spraying of thin layer chromatograms with conidial suspensions of a test organism. About 100 μg of extract was spotted on silica gel TLC plates and developed with suitable solvent system. Dried plates were separately sprayed with either a spore suspension of Cladosporium cucumerinum, and subsequent plates with spore suspensions of Cladosporium carrionii, Cladosporium cladosporioides, Cladosporium tennuisimum (ATCC 623337) and Fonsecaea pedrosoi (ATCC 52593), in some cases to determine the spectrum of activity. The plates were then incubated in sealed humid chambers at room temperature for four days in the dark. […] The powdered rhizome of A. danellii (200 g)was continously extracted with petroleum ether (bp 40-60° C.) to exhaustion in as soxhlet extractor. The petroleum ether extracts when combined and concentrated to dryness in vacuo gave a reddish brown residue (11.41 g). The air dried marc from the above extract was again extracted with ethanol in a soxhlet extractor, extracts were concentrated to dryness under reduce pressure using the rotary evaporator at 40° C. Both extracts were tested for antifungal activity using bioautography (TLC-bioassay) as described above. […]

[2] = system: Plasmodium falciparum Indochina (W-2) clone; assay: in vitro antimalarial assay, [3H]hypoxanthine uptake, W-2 clone; format: cell-based; conditions: chloroquine-resistant
Procedure: as §1, §2

[3] = system: Leishmania (Leishmania) chagasi, MHOM/BR/84/BA-13 promastigotes; assay: in vitro radiorespirometric microtest (RAM), antileishmanial; format: cell-based; conditions: for respiration / metabolic rate for 14C-substrates: 50 μg/ml for 96 h, versus vehicle control
Procedure: An in vitro radiorespirometric microtest (RAM) technique was used to evaluate the extracts/fractions or pure compounds for possible antileishmanial activity. This method, as already noted, relies on drug inhibition of parasite production of ^14CO2 from a battery of ^14C-substrates by promastigotes to detect drug-mediated parasite damage at low drug concentration within a short time. The test is quantitative, rapid, consistent, and is conducted in serum-free medium in which prior adaptation is not necessary to cultivate the so-called “difficult to grow” species.
A clinical isolate of visceral Leishmania (Leishmania) chagasi, MHOM/BR/84/BA-13, was used for this study. This isolate was selected because sensitivity to SbV was previously determined using RAM.
All ^14C-substrates were selected with specific activities as close to 40 mCi mM^−1 per carbon atom as obtainable from commercial sources.
The procedure was conducted as previously described (Jackson et al., 1989, 1990). Promastigotes were maintained in log phase growth for 3 successive transfers (48-72 h apart) prior to radiorespirometric (RAM) testing. Test samples (or PBSS, 0.1 M phosphate-buffered balanced salt solution, plus drug solvent, DMSO, for parallel control cultures) was added 24 h after the third promastigote transfer to fresh growth medium. Incubation in the presence of plant samples was continued for 96 additional hours while the parasites remained in mid-log phase growth. The test sample was tested at 50 μg ml^−1. Drug sensitivity or resistance was based on ^14C-substrate(s) (listed in Table 1) for which ^14CO2 release was decreased for drug-treated parasites compared to parallel tests of phosphate-buffered balanced salt solution and vehicle (PBSS+DMSO) controls. Each experiment consisted of parallel: (a) duplicate tests of drug-treated parasites; plus (b) duplicate tests of drug vehicle control-treated parasites; plus (c) one “nonbiological” sterility control. The nonbiological control consisted of each ^14C-substrate (one substrate per microtiter tray well), and PBSS (the same PBSS batch used to wash, to suspend the parasites, and to make drug solution). Since there were no parasites in the nonbiological control, any ^14CO2 detected was attributed either to biologic contamination (or, less likely, chemical contamination) of the ^14C-substrates resulting in breakdown of the ^14C-substrates. If radioactivity above background (10 dpm) was detected in the nonbiological control, the suspect solution(s) was replaced and the experiment was repeated.

[4] = human; cited from earlier work
[5] = system: Trypanosoma brucei brucei Lab 110 EATRO and Trypanosoma brucei rhodesiense KETRI 243, 269, 243 As-10-3; assay: in vitro trypanosome screen, bloodstream trypomastigotes; format: cell-based; conditions: for IC50: Trypanosoma brucei, RHODESIENSE; for fold increase in activity: versus primary extract / related species
Procedure: The in vitro activity of 39 plant extracts was tested against four strains of animal or human-pathogenic African trypanosomes, and three strains of mammalian-pathogenic Trichomonas spp. The trypanosomes studied were Trypanosoma brucei brucei Lab 110 EATRO, which is pathogenic to cattle and other livestock, and several strains of Trypanosoma brucei rhodesiense, a parasite of humans, domestic and wild animals. Strains of T. b. rhodesiense included drug resistant clinical isolates KETRI 243 and 269 and KETRI 243 As-10-3, a highly melarsen- and diamidine-resistant clone of KETRI 243. The 39 extracts were tested in an in vitro screen using a semi-defined medium for growth of bloodstream trypomastigotes at 37° C. (Hirumi & Hirumi, 1989) to determine IC50 values (Bacchi et al., 1996). Of these, 10 had IC50values at or below 10 μg/ml and were considered sufficiently active to warrant testing of more purified extracts. Of the four secondary extracts supplied, one, aulacocarpin (III) (SU1460), derived from the primary extract SU787 of A. aulocacarpus featured a 10-15 fold increase in activity. […] Eight additional primary extracts were also tested in the trypanosome screen (Table 3). […] Aulocacarpin (III) is an extract from Aframonum aulocacarpus and has the following formula: [drawing 3]

[6] = Plasmodium falciparum, read-out: IC50
[7] = previously determined using RAM

Compound: CCNCCCNCCCNCCCNCC [1,11-diethylnorspermine]
toxicity to feeder layer RK13 cells (RK13 cells): without toxicity | effect on parasite culture (Enterocytozoon cuniculi): sterilize the culture

Compound: CCNCCCCNCCCCNCCCCNCCCCNCC [1,19-bis(ethylamino)5,10,15-triazanonadecane]
toxicity to feeder layer RK13 cells (RK13 cells): without toxicity | effect on parasite culture (Enterocytozoon cuniculi): sterilize the culture

Compound: C=C1CC[C@H]2C(C)(C)CCC[C@]2(C)[C@H]1C/C=C(/C=O)CC=O [Labda-8(17),12-diene-15,16-dial, labda-8(17),12-diene-15,16-dial]
IC50 [1]: 0.09666 µg/mL (≈ 0.32 µM) | lowest concentration giving a clearly visible inhibition zone (Cladosporium cucumerinum): 0.5 µg | IC50 [2]: 0.28018 µg/mL (≈ 0.926 µM) | concentration inhibiting Leishmania promastigotes [3]: ≤ 50 µg | inhibition of growth of the leishmania strain ([3]; 50 μg/ml): completely inhibited | respiration / metabolic rate for 14C-substrates [3]: markedly reduced respiration | respiration / metabolic rate for 14C-substrates ([3]; listed as labdane-dial): near zero | parasite viability in culture ([3]; after a 96 hr incubation): no live parasites were observed

Compound: Nc1nc(N)nc(Nc2ccc([As]3SCC(CO)S3)cc2)n1 (stereo not shown) [Melarsoprol, melarsoprol]
incidence of cerebral episodes [4]: 3-5%

Compound: COC(=O)C(CC[C@H]1C2(CCC3C(C)(C)[C@@H](O)CC[C@@]31C)CO2)C1CO1 (stereo partly shown) [SU1460, aulacocarpin]
IC50 [5]: 0.86 µg/mL (≈ 2.35 µM) | fold increase in activity [5]: 10-15 fold

IC50 [1, 6]: 0.124 µg/mL (≈ 0.433 µM) | IC50 [2, 6]: 0.17 µg/mL (≈ 0.594 µM)
Compound: COc1cc(O)c2c(c1)O[C@H](c1ccc(O)cc1)CC2=O [Sakuranetin]
antileishmanial activity ([3]; in vitro): strongest antileishmanial activity

Compound: CC1(C)CCC[C@@]2(C)[C@H]1CC[C@@]1(CO1)[C@@H]2C/C=C(/C=O)CC=O [aframodial]
IC50 [5]: 0.86 µg/mL (≈ 2.7 µM) | fold increase in activity [5]: 10-11 fold

Compound: sodium antimony gluconate [Pentostam, reference compound]
concentration at which the isolate is sensitive, as Sb [3, 7]: 6 μg ml^−1 Sb | concentration at which the isolate is sensitive, as drug [3, 7]: 20 μg ml^−1 drug
